Laboratory results taken from US20250243180A1, “TARGETED PROTEIN DEGRADATION” (Monte Rosa Therapeutics AG, priority 2023, published 2025).
Read-outs that look alike come from different tables or passages of the source.

Legend:
[1] = test system: IL-1β release; assay: IL-1β release in human monocyte-derived macrophages, LPS/nigericin stimulation; format: cell-based; details: Macrophage, 24 h pre-treatment, LPS 3 h then 10 μM nigericin 1 h, read-out: IL-1b IC50 (NIG)
Protocol: (§1) Human monocytes were enriched and isolated from a buffy coat of healthy donor whole blood with a RosetteSep™ Human Monocyte Enrichment Cocktail (Cat.No. 15068, StemCell) and Ficoll-Plaque PLUS (Cat.No. H8889, Sigma). Monocytes were differentiated into macrophages by treatment with 100 ng/mL M-CSF for 6 days at 37° C., 5% CO2. Differentiated macrophages were seeded overnight (50,000 cells/well) in 100 µL of medium in a 96-well, white-bottom plate at 37° C., 5% CO2. Cells were treated with a concentration range of MGD for 24 hours prior to stimulation with nigericin. Macrophages were primed with […] LPS for 3 h followed by 1 h stimulation with 10 μM nigericin. Media of stimulated macrophages were collected and assayed for caspase 1 activity directly (Promega G9951), according to manufacturer's instructions. For IL-1β release assay, media of stimulated macrophages were collected and stored at −20° C., then thawed at 4° C. before assaying for IL-1β activity (Promega W6011), according to manufacturer's instructions.

[2] = target: NEK7 (Homo sapiens (Human), UniProt Q8TDX7+Q96SW2); assay: NEK7 NanoBiT degradation assay in Cal51 NEK7 NanoBiT cell line; format: cell-based; details: Cal51 NEK7 NanoBiT cells, 24 hours; for Dmax: CAL-51
Outline: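 EC50 comes from a 4-parameter fit of control-normalized luminescence. The luminescence reports HiBiT-NEK7 (endogenous knock-in) complemented by stably expressed LgBiT in Cal51 cells after 24 h compound exposure at 37 °C. Final concentrations ran 1 μM to 0.05 nM, with Endurazine substrate present in the medium throughout.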

[3] = target: CRBN-DDB1 (Homo sapiens (Human), UniProt Q96SW2); assay: Compound binding to CRBN by HTRF assay
Outline: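 Ki calculated via Cheng-Prusoff from geometric-mean EC50 values, after normalizing the HTRF ratio to lenalidomide (active) and DMSO (neutral) controls. Compounds (11 points, 1:3 steps) incubated 30 min at ambient temperature with CRBN-DDB1 2.5 nM, anti-His Tb cryptate and Cy5-thalidomide tracer 100 nM.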

[4] = test system: Caspase-1 activity; assay: Caspase-1 activity in human monocyte-derived macrophages, LPS/nigericin stimulation; format: cell-based; details: Macrophage, 24 h pre-treatment, LPS 3 h then 10 μM nigericin 1 h, read-out: Caspase-1 IC50 (NIG)
Protocol: as §1

[5] = NEK7 degradation, read-out: NanoBiT Dmax
[6] = NEK7 degradation, read-out: NanoBiT DC50

Sequence of NEK7 (Q8TDX7 whole entry): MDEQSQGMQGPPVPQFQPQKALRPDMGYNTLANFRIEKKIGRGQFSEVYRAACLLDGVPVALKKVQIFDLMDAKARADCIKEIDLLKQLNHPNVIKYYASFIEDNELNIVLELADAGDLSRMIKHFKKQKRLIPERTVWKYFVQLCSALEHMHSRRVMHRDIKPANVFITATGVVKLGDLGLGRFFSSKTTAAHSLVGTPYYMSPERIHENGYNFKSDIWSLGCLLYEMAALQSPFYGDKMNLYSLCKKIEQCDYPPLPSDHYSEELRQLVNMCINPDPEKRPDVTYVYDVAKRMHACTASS
Sequence of NEK7 (Q96SW2 whole entry): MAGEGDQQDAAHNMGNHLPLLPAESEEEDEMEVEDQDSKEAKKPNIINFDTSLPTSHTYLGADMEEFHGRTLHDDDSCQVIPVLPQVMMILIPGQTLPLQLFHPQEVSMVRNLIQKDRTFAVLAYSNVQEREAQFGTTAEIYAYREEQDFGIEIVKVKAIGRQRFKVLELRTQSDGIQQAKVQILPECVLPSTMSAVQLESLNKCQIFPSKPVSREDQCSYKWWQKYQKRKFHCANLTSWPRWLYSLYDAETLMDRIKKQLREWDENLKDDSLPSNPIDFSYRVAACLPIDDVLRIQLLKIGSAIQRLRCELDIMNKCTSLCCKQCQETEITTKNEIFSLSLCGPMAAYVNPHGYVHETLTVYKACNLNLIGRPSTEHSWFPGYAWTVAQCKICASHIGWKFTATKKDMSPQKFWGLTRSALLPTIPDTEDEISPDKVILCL
Sequence of NEK7 (Q16531 2-1140 partner): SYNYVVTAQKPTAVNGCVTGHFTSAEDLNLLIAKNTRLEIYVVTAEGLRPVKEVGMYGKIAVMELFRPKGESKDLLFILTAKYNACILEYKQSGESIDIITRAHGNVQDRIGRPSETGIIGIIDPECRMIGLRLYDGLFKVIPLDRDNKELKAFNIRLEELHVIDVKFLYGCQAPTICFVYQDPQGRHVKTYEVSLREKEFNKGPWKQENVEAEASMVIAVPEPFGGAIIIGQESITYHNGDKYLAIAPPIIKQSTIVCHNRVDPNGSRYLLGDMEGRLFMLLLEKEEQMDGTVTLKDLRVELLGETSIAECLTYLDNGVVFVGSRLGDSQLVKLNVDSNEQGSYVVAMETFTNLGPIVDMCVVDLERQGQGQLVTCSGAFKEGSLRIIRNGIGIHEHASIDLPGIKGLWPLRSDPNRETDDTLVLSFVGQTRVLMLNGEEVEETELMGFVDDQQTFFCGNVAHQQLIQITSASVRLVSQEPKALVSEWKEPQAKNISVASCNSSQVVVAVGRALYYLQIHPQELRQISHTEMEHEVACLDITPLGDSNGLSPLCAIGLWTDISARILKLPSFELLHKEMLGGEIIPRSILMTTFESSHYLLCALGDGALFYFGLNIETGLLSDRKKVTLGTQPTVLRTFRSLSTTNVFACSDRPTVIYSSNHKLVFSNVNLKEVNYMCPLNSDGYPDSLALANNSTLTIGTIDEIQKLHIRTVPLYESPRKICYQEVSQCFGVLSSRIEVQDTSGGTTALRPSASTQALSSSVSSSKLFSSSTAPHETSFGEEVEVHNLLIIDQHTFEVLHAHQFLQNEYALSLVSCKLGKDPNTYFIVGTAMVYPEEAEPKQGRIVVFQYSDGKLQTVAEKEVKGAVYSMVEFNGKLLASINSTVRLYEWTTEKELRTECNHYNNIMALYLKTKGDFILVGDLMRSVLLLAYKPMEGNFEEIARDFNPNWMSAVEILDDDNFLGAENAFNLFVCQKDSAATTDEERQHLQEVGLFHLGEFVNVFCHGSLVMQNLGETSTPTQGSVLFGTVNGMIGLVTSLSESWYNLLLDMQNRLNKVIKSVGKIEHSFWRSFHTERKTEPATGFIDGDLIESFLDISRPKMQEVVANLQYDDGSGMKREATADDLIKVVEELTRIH
Sequence of CRBN-DDB1 (Q96SW2 whole entry): as the sequence (Q96SW2 whole entry) above
Sequence of CRBN-DDB1 (Q16531 whole entry partner): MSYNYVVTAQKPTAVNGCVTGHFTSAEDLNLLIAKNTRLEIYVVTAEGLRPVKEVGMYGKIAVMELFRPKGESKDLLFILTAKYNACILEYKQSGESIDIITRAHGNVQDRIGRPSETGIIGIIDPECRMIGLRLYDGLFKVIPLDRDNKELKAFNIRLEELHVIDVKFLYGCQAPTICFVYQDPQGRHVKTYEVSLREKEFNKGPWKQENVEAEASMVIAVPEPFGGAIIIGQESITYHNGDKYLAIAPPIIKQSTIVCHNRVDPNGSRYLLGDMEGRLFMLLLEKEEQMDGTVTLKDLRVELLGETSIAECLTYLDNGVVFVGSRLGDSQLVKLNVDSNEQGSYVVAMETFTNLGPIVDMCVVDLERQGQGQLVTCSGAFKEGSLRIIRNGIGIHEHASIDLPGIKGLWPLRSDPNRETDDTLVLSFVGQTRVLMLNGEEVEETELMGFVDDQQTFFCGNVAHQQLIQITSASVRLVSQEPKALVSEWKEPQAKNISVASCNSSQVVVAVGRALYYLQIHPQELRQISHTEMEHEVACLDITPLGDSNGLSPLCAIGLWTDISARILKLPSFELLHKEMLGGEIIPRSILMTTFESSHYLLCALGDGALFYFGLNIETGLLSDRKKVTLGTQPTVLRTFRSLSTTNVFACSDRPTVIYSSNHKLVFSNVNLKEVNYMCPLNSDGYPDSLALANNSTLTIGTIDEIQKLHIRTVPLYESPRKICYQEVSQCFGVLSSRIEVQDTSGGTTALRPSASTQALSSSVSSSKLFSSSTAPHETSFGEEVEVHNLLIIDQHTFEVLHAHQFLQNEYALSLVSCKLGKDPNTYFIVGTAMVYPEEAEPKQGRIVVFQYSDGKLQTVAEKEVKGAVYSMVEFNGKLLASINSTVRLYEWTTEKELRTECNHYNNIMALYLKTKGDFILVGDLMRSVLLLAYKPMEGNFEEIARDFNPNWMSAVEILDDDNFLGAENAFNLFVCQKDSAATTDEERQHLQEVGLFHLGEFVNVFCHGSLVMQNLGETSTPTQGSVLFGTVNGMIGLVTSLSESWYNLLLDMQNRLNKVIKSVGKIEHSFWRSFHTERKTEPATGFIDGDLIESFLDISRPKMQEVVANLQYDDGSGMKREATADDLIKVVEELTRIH

For `Cc1cnc(C(C)(C)C(=O)NCc2cc(Cl)c(C3CCC(=O)NC3=O)c(Cl)c2)nc1` (stereo not shown) [Compound 14, N-(3,5-dichloro-4-(2,6-dioxopiperidin-3-yl)benzyl)-2-methyl-2-(5-methylpyrimidin-2-yl)-propanamide], the IC50 [1] was 1.95 nM, the Dmax ([2]; read-out: NEK7 NanoBiT Dmax) was 89% and the Dmax [2, 5] was greater than 75%. The DC50 ([2]; read-out: NEK7 NanoBiT DC50) was 9 nM, the DC50 [2, 6] was no more than 100 nM and the EC50 [3] was 110 nM. For the same compound, the EC50 ([3]; HTRF class, Cereblon binding) was 100 to 1000 nM and the IC50 [4] was 1.85 nM.
With `CC(C)(C(=O)NCc1cc(Cl)c(C2CCC(=O)NC2=O)c(Cl)c1)c1ncc(C#N)cn1` (stereo not shown) [Compound 16, 2-(5-cyanopyrimidin-2-yl)-N-(3,5-dichloro-4-(2,6-dioxopiperidin-3-yl)benzyl)-2-methyl-propanamide] the IC50 [1] was 0.56 nM, the Dmax ([2]; read-out: NEK7 NanoBiT Dmax) was 95% and the Dmax [2, 5] was greater than 75%. The DC50 ([2]; read-out: NEK7 NanoBiT DC50) was 4 nM, the DC50 [2, 6] was no more than 100 nM and the EC50 [3] was 120 nM. It also gave an EC50 ([3]; HTRF class, Cereblon binding) of 100 to 1000 nM and an IC50 [4] of 0.32 nM.
